Here are results for one compound from patent US20050032810A1, “Novel anthelmintic and insecticidal compositions” (priority 2003, published 2005).

For the assay, the system named is H. contortus larvae. Nature of the assay: H. contortus Larval Development Assay. The settings on record: at 10 μM. Format: cell-based. From the text:
Compounds can be evaluated for anthelmintic activity according to the H. contortus Larval Development Assay described in Journal of Helminthology, 1984, 58, 107.

Consider `Nc1cc(N2CCC(c3ccccc3)CC2)nc(N)n1` [Compound 2, 6-(4-phenylpiperidin-1-yl)pyrimidine-2,4-diamine], for which the “motility of the larvae” value was “inhibited motility of the larvae”.
